From patent US20220338473A1, “USE OF BENZYL ALCOHOL AS A HERBICIDE” (INNOVI, priority 2019, published 2022)

What was measured:
Format in all cases: in vivo
Brambles = assay: Non-selective activity on brambles (spraying, potted); conditions: 12 g pure benzyl alcohol (600 L/Ha) in 16 g product (800 L/Ha)
Method: (§1) The assays were carried out on potted plants.
The application of the product is carried out with a trigger spray bottle which makes it possible to spray 1 g of product per spraying, as microdroplets. The treated plants are sprinkled with different quantities of water comprising different quantities of pure benzyl alcohol (PanReac AppliChem—ITW Reagents). The untreated (control) plants are sprinkled with the same total quantity of water only.
The brambles are sprinkled with: • 16 g of product (equivalent to 800 L/Ha) including 12 g pure benzyl alcohol for the treated plant (equivalent to 600 L/Ha pure benzyl alcohol), and • 16 g water for the control plants.
The collapsing of the plant, the colour intensity and the diameter of the plant were measured as indicated in Example 1.

Mustard = assay: Early post-emergence herbicide activity, visual rating of symptoms; conditions: cotyledon stage, average of 5 pots
From the text: The soil is composed of 50% agricultural soil and 50% vermiculite.
Mustard seeds are sown in a Petri dish up to the stage of emergence of the radicle. The pre-germinated seeds are placed 1 cm deep in 8 cm×8 cm pots at a rate of 5 seeds per pot and 5 pots/repetitions per condition (treated plants and control plants).
On appearance of the cotyledons, the treatment is applied using a spraying bench simulating an outdoor treatment.
The spraying volume of 200 L/ha.
An untreated control (water alone) is added.
The cultivation conditions are 15° C. during the night/20° C. during the day with a photoperiod of 14 hours (light intensity of approximately 300 μmol/s/m^2).
A visual rating of the symptoms at 1, 3 and 7 days after treatment is carried out for the treated plants.
Each value is an average value calculated over 5 pots per condition.

White petunia = assay: Foliar application (spraying) on potted plants; conditions: 0.1 g benzyl alcohol (5 L/Ha) in 6 g total (300 L/Ha)
Method: (§2) Assays were carried out on different plants by foliar application (spraying) to evaluate the herbicide function, its foliar application mode and its speed of action.
(§3) The assays were carried out on potted plants. The application of the product is carried out with a trigger spray bottle which makes it possible to spray 1 g of product per spraying as microdroplets.
(§4) The plants were sprinkled with different quantities of water containing different quantities of pure benzyl alcohol (PanReac AppliChem—ITW Reagents). The untreated (control) plants are sprinkled with the same total quantity, but of water only.
(§5) The collapsing of the plant, the colour intensity of the plant and the diameter of the plant were measured in the following manner: • Collapsing of the plant: the collapsing was evaluated on a scale of 1 to 5. A score of 5 corresponds to the state of the plant habit at T0 and 1 corresponds to a total collapsing of the plant. • Colour intensity: the colour of the plant (leaves and flowers) is evaluated on a scale of 1 to 5. A score of 5 corresponds to the colour intensity of the plant at T0 and a score of 1 corresponds to a total discoloration of the plant (white or brown according to the type of plant). • Diameter of the plant: the diameter of the plant corresponds to the surface area occupied by the plant seen from above and is evaluated by a score of 1 to 5. A score of 5 corresponds to the diameter of the plant at T0 and a score of 1 corresponds to the size of the pot (or smaller than this).

White horned pansy = assay: Foliar application (spraying) on potted plants; conditions: 12 g benzyl alcohol (600 L/Ha) in 12 g total (600 L/Ha)
Method: as §2, §3, §4, §5

Purple horned pansy = assay: Foliar application (spraying) on potted plants; conditions: 1 g benzyl alcohol (50 L/Ha) in 12 g total (600 L/Ha)
Method: as §2, §3, §4, §5

Dahlia = assay: Foliar application (spraying) on potted plants; conditions: 2 g benzyl alcohol (100 L/Ha) in 20 g total (1000 L/ha)
Method: as §2, §3, §4, §5

Lobelia = assay: Foliar application (spraying) on potted plants; conditions: 6 g benzyl alcohol (300 L/Ha) in 6 g total (300 L/ha)
Method: as §2, §3, §4, §5

Carnation = assay: Foliar application (spraying) on potted plants; conditions: 8 g benzyl alcohol (400 L/Ha) in 16 g total (800 L/ha)
Method: as §2, §3, §4, §5

Sage = assay: Foliar application (spraying) on potted plants; conditions: 4 g benzyl alcohol (200 L/Ha) in 10 g total (500 L/Ha)
Method: as §2, §3, §4, §5

Pink petunia = assay: Foliar application (spraying) on potted plants; conditions: 0.4 g benzyl alcohol (20 L/Ha) in 4 g total (200 L/ha)
Method: as §2, §3, §4, §5

Ivy = assay: Foliar application (spraying) on potted plants; conditions: 16 g benzyl alcohol (800 L/Ha) in 20 g total (1000 L/Ha)
Method: as §2, §3, §4, §5

Barley seeds = assay: Pre-emergence herbicide activity: germination of seeds sown at different depths
Method: as §1
Pure benzyl alcohol was used (PanReac AppliChem—ITW Reagents). The application of the product is carried out with a trigger spray bottle which makes it possible to spray 1 g of product per spraying as microdroplets.
Barley seeds (50 seeds per condition) are sown in potting soil at different depths (1, 2 and 3 cm). Then, 100% benzyl alcohol is sprayed on the earth (above the seeds) at different concentrations (10, 25, 50, 100, 200, 300 L/Ha).
The state of germination is observed at 0 and 11 days. The percentage of germination is the percentage of germinated seeds evaluated after 11 days.
The percentage of seeds germinated under each of the conditions is determined and if it is below 70%, pre-emergence use is not recommended.

`OCc1ccccc1` [benzyl alcohol] was tested, and the “Collapsing: time to pass from a score of 5 to a score of 1” value (Brambles) was 144 h, the “Colour intensity: time to pass from a score of 5 to a score of 1” value (Brambles) was 96 h and the “Visual rating of the symptoms (0 = similar to control, 100 = dead plant)” value (shortened to “Visual rating of the symptoms”) (Mustard; 30 L/ha active material, 1 day after treatment) was 3. For the same compound, the “Visual rating of the symptoms” value (Mustard; 30 L/ha active material, 3 days after treatment) was 21, the “Visual rating of the symptoms” value (Mustard; 30 L/ha active material, 7 days after treatment) was 81 and the “Visual rating of the symptoms” value (Mustard; 40 L/ha active material, 1 day after treatment) was 59. For the same compound, the “Visual rating of the symptoms” value (Mustard; 40 L/ha active material, 3 days after treatment) was 82, the “Visual rating of the symptoms” value (Mustard; 40 L/ha active material, 7 days after treatment) was 93 and the “Visual rating of the symptoms” value (Mustard; 60 L/ha active material, 1 day after treatment) was 63. For the same compound, the “Visual rating of the symptoms” value (Mustard; 60 L/ha active material, 3 days after treatment) was 92, the “Visual rating of the symptoms” value (Mustard; 60 L/ha active material, 7 days after treatment) was 100 and the “Collapsing of treated plant (score and time): time to pass from score 5 (T0) to score 1” value (“Collapsing of treated plant” for short) (White petunia) was 1 to 96 h. The “Colour intensity of treated plant (score and time): time to pass from score 5 (T0) to score 1” value (from here on “Colour intensity of treated plant”) (White petunia) was 1 to 96 h, the “Diameter of treated plant (score and time): time to pass from score 5 (T0) to score 1” value (“Diameter of treated plant” below) (White petunia) was 1 to 120 h and the “Collapsing of treated plant” value (White horned pansy) was 1 to 6 h. For the same compound, the “Colour intensity of treated plant” value (White horned pansy) was 1 to 6 h, the “Diameter of treated plant” value (White horned pansy) was 1 to 6 h and the “Collapsing of treated plant” value (Purple horned pansy) was 1 to 48 h. For the same compound, the “Colour intensity of treated plant” value (Purple horned pansy) was 1 to 24 h, the “Diameter of treated plant” value (Purple horned pansy) was 1 to 48 h and the “Collapsing of treated plant” value (Dahlia) was 1 to 48 h. The “Colour intensity of treated plant” value (Dahlia) was 1 to 24 h, the “Diameter of treated plant” value (Dahlia) was 1 to 72 h and the “Collapsing of treated plant” value (Lobelia) was 1 to 24 h. The “Colour intensity of treated plant” value (Lobelia) was 1 to 24 h, the “Diameter of treated plant” value (Lobelia) was 1 to 24 h and the “Collapsing of treated plant” value (Carnation) was 1 to 24 h. The “Colour intensity of treated plant” value (Carnation) was 1 to 24 h, the “Diameter of treated plant” value (Carnation) was 1 to 48 h and the “Collapsing of treated plant” value (Sage) was 1 to 48 h. For the same compound, the “Colour intensity of treated plant” value (Sage) was 1 to 24 h, the “Diameter of treated plant” value (Sage) was 1 to 48 h and the “Collapsing of treated plant” value (Pink petunia) was 1 to 72 h. For the same compound, the “Colour intensity of treated plant” value (Pink petunia) was 1 to 48 h, the “Diameter of treated plant” value (Pink petunia) was 1 to 96 h and the “Collapsing of treated plant” value (Ivy) was 1 to 96 h. For the same compound, the “Colour intensity of treated plant” value (Ivy) was 1 to 48 h, the “Diameter of treated plant” value (Ivy) was 1 to 96 h and the “Pre-emergence use prescribed (germination of sown seeds at 11 days not below 70%)” value (Barley seeds; seeding depth 1 cm, 50 L/Ha benzyl alcohol sprayed on the earth) was “yes (pre-emergence use is prescribed)”. For the same compound, the “Pre-emergence use prescribed (germination of sown seeds at 11 days not below 70%)” value (Barley seeds; seeding depth 1 cm, 100 L/Ha benzyl alcohol sprayed on the earth) was “no (pre-emergence use is not recommended)”, the “Pre-emergence use prescribed (germination of sown seeds at 11 days not below 70%)” value (Barley seeds; seeding depth 1 cm, less than 50 L/Ha benzyl alcohol sprayed on the earth) was “yes (pre-emergence use is prescribed)” and the “Pre-emergence use prescribed (germination of sown seeds at 11 days not below 70%)” value (Barley seeds; seeding depth 2 cm, 50 L/Ha benzyl alcohol sprayed on the earth) was “yes (pre-emergence use is prescribed)”. For the same compound, the “Pre-emergence use prescribed (germination of sown seeds at 11 days not below 70%)” value (Barley seeds; seeding depth 2 cm, 100 L/Ha benzyl alcohol sprayed on the earth) was “yes (pre-emergence use is prescribed)”, the “Pre-emergence use prescribed (germination of sown seeds at 11 days not below 70%)” value (Barley seeds; seeding depth 2 cm, less than 50 L/Ha benzyl alcohol sprayed on the earth) was “yes (pre-emergence use is prescribed)” and the “Pre-emergence use prescribed (germination of sown seeds at 11 days not below 70%)” value (Barley seeds; seeding depth 3 cm, 50 L/Ha benzyl alcohol sprayed on the earth) was “yes (pre-emergence use is prescribed)”. The “Pre-emergence use prescribed (germination of sown seeds at 11 days not below 70%)” value (Barley seeds; seeding depth 3 cm, 100 L/Ha benzyl alcohol sprayed on the earth) was “yes (pre-emergence use is prescribed)” and the “Pre-emergence use prescribed (germination of sown seeds at 11 days not below 70%)” value (Barley seeds; seeding depth 3 cm, less than 50 L/Ha benzyl alcohol sprayed on the earth) was “yes (pre-emergence use is prescribed)”.
